From patent US20020132800A1, “Dietary supplement composition and method for improving and maintaining healthy skin” (priority 2000, published 2002)

Key:
[1] = Stability testing of the preferred embodiment tablet under accelerated storage conditions (ingredient content as % of claim); format: physicochemical; settings: 40 +/- 2 deg C and 75 +/- 5% RH, 150 cc white HDPE bottle
[2] = Dissolution of ingredients from the tablet during accelerated stability testing; format: physicochemical; settings: 40 +/- 2 deg C and 75 +/- 5% RH, 150 cc white HDPE bottle

Compound	Result as % of claim at indicated weeks ([1]; 0 wk)	Result as % of claim at indicated weeks ([1]; 4 wk)	Result as % of claim at indicated weeks ([1]; 8 wk)	Result as % of claim at indicated weeks ([1]; 13 wk)	Result as % of claim at indicated weeks ([1]; 26 wk)	Dissolution, result as % of claim at indicated weeks ([2]; 13 wk)	Dissolution, result as % of claim at indicated weeks ([2]; 26 wk)	Dissolution, result as % of claim at indicated weeks ([2]; 0 wk)	Dissolution, result as % of claim at indicated weeks ([2]; 4 wk)	Dissolution, result as % of claim at indicated weeks ([2]; 8 wk)
CC1=C(/C=C/C(C)=C/C=C/C(C)=C/C=C/C=C(C)/C=C/C=C(C)/C=C/C2=C(C)CCCC2(C)C)C(C)(C)CCC1 [Beta Carotene]	123 % of claim	139 % of claim	130 % of claim	144 % of claim	124 % of claim					
O=C(O)CCCC[C@@H]1SC[C@@H]2NC(=O)N[C@@H]21 [Biotin]	105 % of claim	101 % of claim	100 % of claim	114 % of claim	93.0 % of claim					
[Ca+2] [Calcium]				120 % of claim	118 % of claim	119 % of claim	115 % of claim			
[Cr] [Chromium]	139 % of claim	128 % of claim	120 % of claim	133 % of claim	121 % of claim					
[Cu] [Copper]	115 % of claim	111 % of claim	111 % of claim	114 % of claim	109 % of claim					
Nc1nc2ncc(CNc3ccc(C(=O)N[C@@H](CCC(=O)O)C(=O)O)cc3)nc2c(=O)[nH]1 [Folic Acid]	169 % of claim	132 % of claim	125 % of claim	120 % of claim	117 % of claim					
CC(C)=CCC/C(C)=C/C=C/C(C)=C/C=C/C(C)=C/C=C/C=C(C)/C=C/C=C(C)/C=C/C=C(\C)CCC=C(C)C [Lycopene]	131 % of claim	144 % of claim	170 % of claim	156 % of claim	150 % of claim					
[Mn+2] [Manganese]	119 % of claim	114 % of claim	115 % of claim	115 % of claim	113 % of claim					
[Se] [Selenium]	103 % of claim	136 % of claim	123 % of claim	129 % of claim	126 % of claim					
Cc1cc2nc3c(=O)[nH]c(=O)nc-3n(C[C@H](O)[C@H](O)[C@H](O)CO)c2cc1C [Vitamin B2, Riboflavin]	132 % of claim	123 % of claim	125 % of claim	123 % of claim	123 % of claim	119 % of claim	125 % of claim	133 % of claim	120 % of claim	109 % of claim
Cc1ncc(CO)c(CO)c1O.Cl [Vitamin B6]	116 % of claim	109 % of claim	110 % of claim	137 % of claim	114 % of claim					
O=C1O[C@H]([C@@H](O)CO)C(O)=C1O [Vitamin C]	108 % of claim	106 % of claim	103 % of claim	114 % of claim	104 % of claim					
[Zn] [Zinc]	121 % of claim	109 % of claim	117 % of claim	108 % of claim	112 % of claim	107 % of claim		117 % of claim	102 % of claim	104 % of claim
Silicon	108 % of claim		109 % of claim	122 % of claim	107 % of claim					
Vitamin A	136 % of claim	134 % of claim	113 % of claim	106 % of claim	110 % of claim					
Vitamin E	126 % of claim	115 % of claim	110 % of claim	125 % of claim	121 % of claim					
